In one data set the target is T1, α5-GABAA receptor (Homo sapiens, UniProt P18507+P31644).
T1 construct: expressed in transfected cells; host or cells: HEK293, monoclonal stably transfected line
In words: Cell-level screening: whole cell patch clamp, inverse agonist efficacy on α5-GABAA receptor expressed in HEK293. In kind it is cell-based. Conditions: drug 100 nM, GABA 0.05 μM, HEK293 expressing α5, β3 and γ2 subunits, clamped at −60 mV; read-out: Compound inverse agonist efficacy %. Put shortly: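 Whole-cell patch clamp at −60 mV on HEK293 stably expressing α5β3γ2, pH 7.4 extracellular/CsCl internal solutions. Current evoked by 0.05 μM GABA, then compound in GABA solution; screening at 100 nM, dose-response 0.3–300 nM. Inverse agonist efficacy as % change of GABA current.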

The nature of data set [1]: Thermodynamic solubility in simulated intestinal fluid (TS in FaSSIF). In kind it is physicochemical. To be noted: thermodynamic from solid, 37° C. How it is done:
Simulated intestinal fluid FaSSIF: 54.76 mg of FaSSIF-V2 (Biorelevant, batch. V2FAS-0619-A, lot. V2FAS01) was weighed and added to 15 mL of a buffer solution. After dissolving, the solution was supplemented to 30 mL, and put at room temperature for 1 hour before use.
Waters e2695 HPLC high performance liquid chromatography, Mettler XSE105 analytical balance.
Firstly, a 10 mM stock solution was prepared with DMSO, and was diluted with a diluent (ACN: PB buffer 50:50) into 1 μM-200 μM as a standard solution.
Thermodynamic solubility in intestinal fluid (TS in FaSSIF) was simulated. About 0.3 mg of each sample was weighed and added to 1.5 mL of FaSSIF solution, with two parts in parallel, shaken at 1000 rpm at 37° C. for 4 hours, filtered. 1 mL of an initial filtrate was discarded, and 400 μL of the subsequent filtrate was taken. The filtrate was detected by high performance liquid chromatograph (UV).

These results are taken from patent US12637468B2, “Substituted [1,2,4]triazolo[4,3-b]pyridazines as GABAA receptor modulators” (SHANGHAI SIMR BIOTECHNOLOGY CO., LTD., priority 2019, dated 2026).

Molecules are shown by their SMILES. Values after ≈ are worked out from the molar mass of the structure shown.

T1 sequence (P31644 32-462): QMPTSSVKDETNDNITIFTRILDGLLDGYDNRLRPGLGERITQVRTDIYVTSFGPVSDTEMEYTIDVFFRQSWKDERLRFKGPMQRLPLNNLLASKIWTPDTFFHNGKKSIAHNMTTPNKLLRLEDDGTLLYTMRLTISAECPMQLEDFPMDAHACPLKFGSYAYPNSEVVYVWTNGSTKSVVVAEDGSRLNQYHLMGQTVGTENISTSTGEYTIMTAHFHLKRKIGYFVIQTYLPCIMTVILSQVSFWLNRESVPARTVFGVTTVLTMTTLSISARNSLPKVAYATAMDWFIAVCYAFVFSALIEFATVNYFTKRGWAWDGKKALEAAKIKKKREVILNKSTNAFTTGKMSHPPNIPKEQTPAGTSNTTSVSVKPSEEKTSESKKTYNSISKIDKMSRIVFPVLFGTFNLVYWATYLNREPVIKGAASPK
T1 sequence (P28472 26-473 partner): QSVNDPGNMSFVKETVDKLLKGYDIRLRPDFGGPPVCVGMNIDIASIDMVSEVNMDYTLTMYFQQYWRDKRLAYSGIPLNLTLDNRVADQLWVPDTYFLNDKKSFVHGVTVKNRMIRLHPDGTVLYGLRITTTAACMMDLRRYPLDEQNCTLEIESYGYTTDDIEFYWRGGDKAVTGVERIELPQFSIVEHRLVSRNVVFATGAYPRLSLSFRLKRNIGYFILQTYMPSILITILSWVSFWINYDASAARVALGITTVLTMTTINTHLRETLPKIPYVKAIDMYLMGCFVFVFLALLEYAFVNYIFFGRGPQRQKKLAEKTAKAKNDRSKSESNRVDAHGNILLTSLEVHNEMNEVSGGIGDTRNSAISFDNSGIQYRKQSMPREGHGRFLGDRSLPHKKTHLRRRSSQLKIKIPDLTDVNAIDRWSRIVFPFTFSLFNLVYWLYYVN
T1 sequence (P18507 40-467 isoform P18507-1 limits assumed): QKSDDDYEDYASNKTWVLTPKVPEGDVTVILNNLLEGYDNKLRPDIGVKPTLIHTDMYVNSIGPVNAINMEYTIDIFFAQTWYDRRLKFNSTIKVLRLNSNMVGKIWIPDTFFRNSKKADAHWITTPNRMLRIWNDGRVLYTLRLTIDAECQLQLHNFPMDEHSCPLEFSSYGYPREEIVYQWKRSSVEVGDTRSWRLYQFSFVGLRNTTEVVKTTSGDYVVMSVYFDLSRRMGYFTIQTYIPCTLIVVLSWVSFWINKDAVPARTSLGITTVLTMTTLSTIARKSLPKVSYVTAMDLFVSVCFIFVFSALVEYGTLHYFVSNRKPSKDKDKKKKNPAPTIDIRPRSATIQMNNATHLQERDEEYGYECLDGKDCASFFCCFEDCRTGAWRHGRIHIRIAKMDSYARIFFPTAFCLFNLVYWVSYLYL

`COc1cc2nnc(-c3cc(C)on3)n2nc1OCc1ncnn1C` [Embodiment 1, 3-(7-Methoxy-6-((1-methyl-1H-1,2,4-triazol-5-yl)methoxy)-[1,2,4]triazolo[4,3-b]pyridazin-3-yl)-5-methylisoxazole]: on α5-GABAA receptor, the inhibition at 0.1 µM was found to be 41.9%. The compound further displayed a solubility (thermodynamic) at 4 h in data set [1] of 146 µg/mL (≈ 427 µM). As for `COCCOc1ccc(COc2nn3c(-c4cc(C)on4)nnc3cc2OC)nc1` [Embodiment 6], the inhibition at 0.1 µM on α5-GABAA receptor was 42.2%. Moreover, the thermodynamic solubility at 4 h in data set [1] is 46.9 µg/mL (≈ 114 µM). For `COc1cc2nnc(-c3cc(C)on3)n2nc1OCc1nccc(OC)c1OC` [Embodiment 7] the same measures were 30.1% and 37.8 µg/mL (≈ 94.9 µM). With `COCCCOc1ccc(COc2nn3c(-c4cc(C)on4)nnc3cc2OC)nc1` [Embodiment 9], the inhibition at 0.1 µM at α5-GABAA receptor is 40.6%. Moreover, the thermodynamic solubility at 4 h in data set [1] was 60.3 µg/mL (≈ 141 µM). For `COc1cc2nnc(-c3cc(C)on3)n2nc1OCc1cnccn1` [Embodiment 19] the same measures were 35.4% and 49.2 µg/mL (≈ 145 µM). In the case of `CCNCc1ccc(COc2nn3c(-c4cc(C)on4)nnc3cc2OC)nc1` [Embodiment 21], the inhibition at 0.1 µM at α5-GABAA receptor amounted to 36.3%. The solubility (thermodynamic) at 4 h in data set [1] was 519 µg/mL (≈ 1310 µM). Turning to `COCc1cc(-c2nnc3cc(OC)c(OCc4ccccn4)nn23)no1` [Embodiment 28, 3-(7-Methoxy-6-(pyridin-2-ylmethoxy)-[1,2,4]triazolo[4,3-b]pyridazin-3-yl)-5-(methoxymethyl)isoxazole], at α5-GABAA receptor, the inhibition at 0.1 µM is 35.4%. The solubility (thermodynamic) at 4 h in data set [1] was 55.2 µg/mL (≈ 150 µM).

Turning to `COc1cc2nnc(-c3cc(C)on3)n2nc1OCc1ccncn1` [Embodiment 31], the inhibition at 0.1 µM on α5-GABAA receptor came to 34.1%. This compound also returned a thermodynamic solubility at 4 h in data set [1] of 43.8 µg/mL (≈ 129 µM). For `COCc1ccc(COc2nn3c(-c4cc(C)on4)nnc3cc2OC)nc1` [Embodiment 32], the inhibition at 0.1 µM on α5-GABAA receptor was 41.6%. Besides, in data set [1], the thermodynamic solubility at 4 h is 262 µg/mL (≈ 686 µM). Take `COc1cc2nnc(-c3cc(C)on3)n2nc1OCc1ccccn1` [Embodiment 33, 3-(7-Methoxy-6-(pyridinyl-2-methoxy)-[1,2,4]-triazolo[4,3-b]pyridazin-3-yl)-5-methylisoxazole]: on α5-GABAA receptor, the inhibition at 0.1 µM is 40.4%. For the same compound, in data set [1], the solubility (thermodynamic) at 4 h is 32.3 µg/mL (≈ 95.5 µM).

With `COc1cc2nnc(-c3cc(C)on3)n2nc1OCc1ccc(=O)n(CCCC#N)n1` [Embodiment 36], the inhibition at 0.1 µM at α5-GABAA receptor worked out at 25.9%. The compound also showed a thermodynamic solubility at 4 h in data set [1] of 123 µg/mL (≈ 290 µM). For `COc1cc2nnc(-c3cc(C)on3)n2nc1OCc1cccnn1` [Embodiment 39], in that order: 36.5% and 180 µg/mL (≈ 531 µM).

Regarding `COc1ccc(COc2nn3c(-c4cc(C)on4)nnc3cc2OC)nn1` [Embodiment 43], the inhibition at 0.1 µM on α5-GABAA receptor amounted to 44.2%. Besides, the thermodynamic solubility at 4 h in data set [1] is 48.7 µg/mL (≈ 132 µM). On to `COc1ccc(COc2nn3c(-c4cc(CO)on4)nnc3cc2OC)nc1` [Embodiment 47, (3-(7-Methoxy-6-((5-methoxypyridin-2-yl)methoxy)-[1,2,4]triazolo[4,3-b]pyridazine-3-yl)isoxazol-5-yl)methanol], for which the inhibition at 0.1 µM on α5-GABAA receptor was 45.2%. The compound further gave a thermodynamic solubility at 4 h in data set [1] of 40.4 µg/mL (≈ 105 µM). For `COc1cnnc(COc2nn3c(-c4cc(C)on4)nnc3cc2OC)c1` [Embodiment 49], in that order: 37.2% and 143 µg/mL (≈ 386 µM). For the compound `COCc1cccc(COc2nn3c(-c4cc(C)on4)nnc3cc2OC)n1` [Embodiment 50], on α5-GABAA receptor, the inhibition at 0.1 µM worked out at 38.8%. In addition, the solubility (thermodynamic) at 4 h in data set [1] was 83 µg/mL (≈ 217 µM). Regarding `COCCCOc1ccnc(COc2nn3c(-c4cc(C)on4)nnc3cc2OC)c1` [Embodiment 55], on α5-GABAA receptor, the inhibition at 0.1 µM is 25.1%. In data set [1], this compound came in with a thermodynamic solubility at 4 h of 38 µg/mL (≈ 89.1 µM). Turning to `COCCN1Cc2nc(COc3nn4c(-c5cc(C)on5)nnc4cc3OC)ccc2C1=O` [Embodiment 66], the inhibition at 0.1 µM on α5-GABAA receptor worked out at 62%. In data set [1], this compound returned a solubility (thermodynamic) at 4 h of 146 µg/mL (≈ 323 µM).

Turning to `CCN1Cc2ccc(COc3nn4c(-c5cc(C)on5)nnc4cc3OC)nc2C1` [Embodiment 68], the inhibition at 0.1 µM on α5-GABAA receptor worked out at 51.3%. The compound also showed a solubility (thermodynamic) at 4 h in data set [1] of 146 µg/mL (≈ 358 µM). `COCCn1cccc(COc2nn3c(-c4cc(C)on4)nnc3cc2OC)c1=O` [Embodiment 75]: the inhibition at 0.1 µM on α5-GABAA receptor turned out to be 44.3%. This compound returned a thermodynamic solubility at 4 h in data set [1] of 52.4 µg/mL (≈ 127 µM). On to `COc1cc2nnc(-c3cc(C)on3)n2nc1OCc1ccc2c(n1)CCNC2` [Embodiment 78], for which the inhibition at 0.1 µM on α5-GABAA receptor stood at 43.4%. The thermodynamic solubility at 4 h in data set [1] is 255 µg/mL (≈ 648 µM). With `COCCN1CCc2nc(COc3nn4c(-c5cc(C)on5)nnc4cc3OC)ccc2C1` [Embodiment 80], at α5-GABAA receptor, the inhibition at 0.1 µM was found to be 47.2%. Moreover, the solubility (thermodynamic) at 4 h in data set [1] is 195 µg/mL (≈ 432 µM). Turning to `COCCOc1cnc(COc2nn3c(-c4cc(C)on4)nnc3cc2OC)cn1` [Embodiment 85], at α5-GABAA receptor, the inhibition at 0.1 µM amounted to 57.3%. The compound also had a solubility (thermodynamic) at 4 h in data set [1] of 53.9 µg/mL (≈ 130 µM). Regarding `COc1cc2nnc(-c3cc(C)on3)n2nc1OCc1ccc2c(n1)CCN(Cc1ncccn1)C2=O` [Embodiment 88, 2-(((7-Methoxy-3-(5-methylisoxazol-3-yl)-[1,2,4]triazolo[4,3-b]pyridazin-6-yl)oxy)methyl)-6-(pyrimidin-2-ylmethyl)-7,8-dihydro-1,6-naphthyridin-5(6H)-one], the inhibition at 0.1 µM on α5-GABAA receptor was found to be 32.5%. Also, the solubility (thermodynamic) at 4 h in data set [1] was 60.3 µg/mL (≈ 121 µM). With `COc1cc2nnc(-c3cc(C)on3)n2nc1OCc1ccc2c(n1)CCN(CCC#N)C2` [Embodiment 90], at α5-GABAA receptor, the inhibition at 0.1 µM is 64.9%. Besides, the thermodynamic solubility at 4 h in data set [1] is 84.9 µg/mL (≈ 190 µM).

In the case of `COc1cc2nnc(-c3cc(C)on3)n2nc1OCc1ccc2c(cnn2CCc2ccccc2)n1` [Embodiment 229, 3-(7-Methoxy-6-(((1-phenethyl-1H-pyrazolo[4,3-b]pyridin-5-yl]methoxy])-[1,2,4]triazolo[4,3-b]pyridazin-3-yl)-5-methylisoxazole], the inhibition at 0.1 µM on α5-GABAA receptor amounted to 30.8%. As for `COc1cc2nnc(-c3cc(C)on3)n2nc1OCc1ccc2nn(CCc3ccccc3)cc2n1` [Embodiment 230, 3-(7-Methoxy-6-(((2-phenethyl-2H-pyrazolo[4,3-b]pyridin-5-yl]methoxy])-[1,2,4]triazolo[4,3-b]pyridazin-3-yl)-5-methylisoxazole], the inhibition at 0.1 µM at α5-GABAA receptor is 57.2%.

Turning to `COc1cc2nnc(-c3cc(C)on3)n2nc1OCc1ccc2nn(C(C)C)cc2n1` [Embodiment 235], the inhibition at 0.1 µM at α5-GABAA receptor was determined as 43.5%. Regarding `COc1cc2nnc(-c3cc(C)on3)n2nc1OCc1ccc2c(cnn2C(C)C)n1` [Embodiment 236], the inhibition at 0.1 µM at α5-GABAA receptor was determined as 54.8%.

As to `COc1cc2nnc(-c3cc(C)on3)n2nc1OCc1ccc2nn(C)cc2n1` [Embodiment 237], the inhibition at 0.1 µM at α5-GABAA receptor was 57.9%. As for `COc1cc2nnc(-c3cc(C)on3)n2nc1OCc1ccc2c(cnn2C2CCOCC2)n1` [Embodiment 239], at α5-GABAA receptor, the inhibition at 0.1 µM stood at 48%. For the compound `COCCn1cc2nc(COc3nn4c(-c5cc(C)on5)nnc4cc3OC)ccc2n1` [Embodiment 240], in data set [1], the solubility (thermodynamic) at 4 h was 43.5 µg/mL (≈ 99.7 µM). In the case of `COc1cc2nnc(-c3cc(C)on3)n2nc1OCc1ccc2c(n1)c(C)nn2C1COC1` [Embodiment 242], the inhibition at 0.1 µM at α5-GABAA receptor came out at 54.7%. In the case of `CCn1nc(C)c2nc(COc3nn4c(-c5cc(C)on5)nnc4cc3OC)ccc21` [Embodiment 243], the inhibition at 0.1 µM at α5-GABAA receptor amounted to 50.5%. On the same count and under the same terms, to `CCn1nc2ccc(COc3nn4c(-c5cc(C)on5)nnc4cc3OC)nc2c1C` [Embodiment 244] belongs 75.1%; to `COc1cc2nnc(-c3cc(C)on3)n2nc1OCc1ccc2ncn(C3CCOC3)c2n1` (stereo not shown) [Embodiment 246], 46.6%.

On to `COc1cc2nnc(-c3cc(C)on3)n2nc1OCc1ccc2c(ncn2C2CCOCC2)n1` [Embodiment 248], for which, at α5-GABAA receptor, the inhibition at 0.1 µM was 31.4%.

As for `CCn1cnc2ccc(COc3nn4c(-c5cc(C)on5)nnc4cc3OC)nc21` [Embodiment 249], on α5-GABAA receptor, the inhibition at 0.1 µM was determined as 51.2%.

Regarding `COc1cc2nnc(-c3cc(C)on3)n2nc1OCc1ccc2c(ccn2C2COC2)n1` [Embodiment 250], the inhibition at 0.1 µM at α5-GABAA receptor was 47.4%. In the case of `COc1cc2nnc(-c3cc(C)on3)n2nc1OCc1ccc2ccn(C3CCOCC3)c2n1` [Embodiment 252], the inhibition at 0.1 µM on α5-GABAA receptor was found to be 42.2%. Turning to `COc1cc2nnc(-c3cc(C)on3)n2nc1OCc1ccc2c(n1)CN(C1CCOC1)C2` (stereo not shown) [Embodiment 254], on α5-GABAA receptor, the inhibition at 0.1 µM was determined as 39%. On the same count and under the same terms, to `COc1cc2nnc(-c3cc(C)on3)n2nc1OCc1ccc2c(n1)CN(C1COC1)C2` [Embodiment 255] belongs 45.4%; to `COc1cc2nnc(-c3cc(C)on3)n2nc1OCc1ccc2c(n1)CN(CCC#N)C2` [Embodiment 256, 3-(2-(((7-Methoxy-3-(5-methylisoxazol-3-yl)-[1,2,4]triazolo[4,3-b]pyridazin-6-yl)oxy)methyl)-5,7-dihydro-6H-pyrrolo[3,4-b]pyridin-6-yl)propanenitrile], 40.2%; to `COc1cc2nnc(-c3cc(C)on3)n2nc1OCc1ccc2c(n1)CN(CCCC#N)C2` [Embodiment 257], 50%. Regarding `COc1cc2nnc(-c3cc(C)on3)n2nc1OCc1ccc2nn(C3COC3)c(C)c2n1` [Embodiment 258], the inhibition at 0.1 µM at α5-GABAA receptor was 54.7%.
